In paper PMC6321145 (Molecules, 2018):

Target: T1, Aβ1–42 (Homo sapiens, UniProt P05067)
T1 construct: Aβ1–42 (Sigma, St. Louis, MO, USA; counterion, NaOH) stock solution was prepared by dissolving Aβ1–42 peptide in ammonium hydroxide; purchased Sigma
Test: Inhibition of self-induced Aβ1–42 aggregation (ThT fluorescence assay)
Format: biochemical
Procedure: The formation and aggregation of Aβ1–42 in the brain leads to neurotoxicity in AD. In order to evaluate the activity of our new synthetic compounds to inhibit Aβ1–42 self-induced aggregation, the thioflavin (ThT) fluorescence assay was performed.
All ThT experiments were performed according to our previously published methods. Aβ1–42 (Sigma, St. Louis, MO, USA; counterion, NaOH) stock solution was prepared by dissolving Aβ1–42 peptide in ammonium hydroxide (1% v/v), and diluting with 20 mM phosphate buffer (pH 7.4) to 100 μM. The tested compounds were firstly dissolved in DMSO at a concentration of 10 mM, and then diluted with 20 mM phosphate buffer (pH 7.4) to 40 μM.
For the inhibition of self-induced Aβ1–42 aggregation. Aβ1–42 peptide (2 μL, 50 μM, final concentration) with the tested compound (2 μL, 20 μM, final concentration) or 20 mM phosphate buffer (2 μL) was incubated in 20 mM phosphate buffer (pH 7.4) at 37 °C for 72 h. After incubation, the samples were diluted to a final volume of 36 μL with 50 mM glycine-NaOH buffer (pH 8.5) containing 5 μM Thioflavin T. Fluorescence signal was measured (excitation wavelength 450 nm, emission wavelength 485 nm, and slit widths set to 5 nm) on a monochromator-based multimode microplate reader ([…] M1000, TECAN, Hombrechtikon, Switzerland), adapted for 384-well microtiter plates. […] Each compound was examined in triplicate.

T1 sequence (P05067 672-713): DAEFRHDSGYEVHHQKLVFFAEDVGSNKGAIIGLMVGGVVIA

CCN(CC)c1ccc(/C=C/c2cc(NCCCN(C)C)c3ccccc3n2)cc1 [Compound 6b1, (E)-N^1-(2-(4-(Diethylamino)styryl)quinolin-4-yl)-N^3,N^3-dimethylpropane-1,3-diamine]
IC50 (ThT fluorescence method, mean ± SD of three experiments, read-out: IC50 against self-induced Aβ1–42 aggregation): 4.5 ± 0.7 µM | inhibition at 20 µM (inhibitor 20 μM, Aβ1–42 50 μM, ThT, 37 °C, 72 h, mean ± SD): 95.3 ± 1.2%
